Reference: PubChem BioAssay (NCI)
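Interpolation was linear, between the two tested concentrations surrounding the appropriate level; five concentrations were tested over 48 hours in 96-well plates. GI50 is the concentration that inhibits growth by half. TGI marks complete inhibition of growth.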

Legend:
Experiment in all cases: NCI tumour cell line growth inhibition, 48 h
[1] = test system: 786-0 renal
[2] = test system: A498 renal
[3] = test system: A549 NSCLC
[4] = test system: ACHN renal
[5] = test system: BT-549 breast
[6] = test system: CAKI-1 renal
[7] = test system: CCRF-CEM leukemia
[8] = test system: COLO 205 colon
[9] = test system: DU-145 prostate
[10] = test system: EKVX NSCLC
[11] = test system: HCC-2998 colon
[12] = test system: HCT-116 colon
[13] = test system: HCT-15 colon
[14] = test system: HL-60(TB) leukemia
[15] = test system: HOP-62 NSCLC
[16] = test system: HOP-92 NSCLC
[17] = test system: HS 578T breast
[18] = test system: HT29 colon
[19] = test system: IGROV1 ovarian
[20] = test system: K-562 leukemia
[21] = test system: KM12 colon
[22] = test system: LOX IMVI melanoma
[23] = test system: M14 melanoma
[24] = test system: MALME-3M melanoma
[25] = test system: MDA-MB-231 breast
[26] = test system: MDA-MB-435
[27] = test system: MOLT-4 leukemia
[28] = test system: NCI-H226 lung
[29] = test system: NCI-H23 lung
[30] = test system: NCI-H460 lung
[31] = test system: NCI-H522 lung
[32] = test system: NCI/ADR-RES ovarian
[33] = test system: OVCAR-3 ovarian
[34] = test system: OVCAR-4 ovarian
[35] = test system: OVCAR-5 ovarian
[36] = test system: OVCAR-8 ovarian
[37] = test system: PC-3 prostate
[38] = test system: RPMI-8226 leukemia
[39] = test system: RXF 393 renal
[40] = test system: SF-268 CNS
[41] = test system: SF-295 CNS
[42] = test system: SF-539 CNS
[43] = test system: SK-MEL-2 melanoma
[44] = test system: SK-MEL-28 melanoma
[45] = test system: SK-MEL-5 melanoma
[46] = test system: SK-OV-3 ovarian
[47] = test system: SN12C renal
[48] = test system: SNB-19 CNS
[49] = test system: SNB-75 CNS
[50] = test system: SR leukemia
[51] = test system: SW-620 colon
[52] = test system: T-47D breast
[53] = test system: TK-10 renal
[54] = test system: U251 CNS
[55] = test system: UACC-257 melanoma
[56] = test system: UACC-62 melanoma
[57] = test system: UO-31 renal

With O=C1/C(=C/c2cccc([N+](=O)[O-])c2)COc2ccc(O)cc21 the GI50 [1] was 1850 nM, the TGI [1] was 3830 nM and the GI50 [2] was 3350 nM. The TGI [2] was 13400 nM, the GI50 [3] was 4660 nM and the TGI [3] was 16800 nM. For the same molecule, the GI50 [4] was 1750 nM, the TGI [4] was 3210 nM and the GI50 [5] was 2190 nM. It also gave a TGI [5] of 4460 nM, a GI50 [6] of 1780 nM and a TGI [6] of 3580 nM. For the same molecule, the GI50 [7] was 408 nM, the TGI [7] was 1850 nM and the GI50 [8] was 1580 nM. For the same molecule, the TGI [8] was 3270 nM, the GI50 [9] was 2000 nM and the TGI [9] was 4260 nM. For the same molecule, the GI50 [10] was 3860 nM, the TGI [10] was 13700 nM and the GI50 [11] was 1750 nM. For the same molecule, the TGI [11] was 3210 nM, the GI50 [12] was 1190 nM and the TGI [12] was 2820 nM. The GI50 [13] was 1700 nM, the TGI [13] was 3490 nM and the GI50 [14] was 1690 nM. For the same molecule, the TGI [14] was 4030 nM, the GI50 [15] was 3210 nM and the TGI [15] was 12100 nM. For the same molecule, the GI50 [16] was 2510 nM, the TGI [16] was 7890 nM and the GI50 [17] was 3000 nM. It also gave a TGI [17] of 9400 nM, a GI50 [18] of 1920 nM and a TGI [18] of 4580 nM. It also gave a GI50 [19] of 1730 nM, a TGI [19] of 3340 nM and a GI50 [20] of 506 nM. It also gave a TGI [20] of 11800 nM, a GI50 [21] of 1680 nM and a TGI [21] of 3320 nM. For the same molecule, the GI50 [22] was 1490 nM, the TGI [22] was 2920 nM and the GI50 [23] was 1720 nM. The TGI [23] was 3540 nM, the GI50 [24] was 2370 nM and the TGI [24] was 6750 nM. For the same molecule, the GI50 [25] was 2070 nM, the TGI [25] was 4750 nM and the GI50 [26] was 1910 nM. For the same molecule, the TGI [26] was 4050 nM, the GI50 [27] was 2050 nM and the TGI [27] was 5830 nM. The GI50 [28] was 2190 nM, the TGI [28] was 5230 nM and the GI50 [29] was 2020 nM. For the same molecule, the TGI [29] was 4640 nM, the GI50 [30] was 2690 nM and the TGI [30] was 6650 nM. For the same molecule, the GI50 [31] was 1470 nM, the TGI [31] was 3020 nM and the GI50 [32] was 2930 nM. The TGI [32] was 10800 nM, the GI50 [33] was 1710 nM and the TGI [33] was 3130 nM. For the same molecule, the GI50 [34] was 3300 nM, the TGI [34] was 11100 nM and the GI50 [35] was 2110 nM. For the same molecule, the TGI [35] was 4760 nM, the GI50 [36] was 2670 nM and the TGI [36] was 9520 nM. It also gave a GI50 [37] of 2150 nM, a TGI [37] of 5450 nM and a GI50 [38] of 236 nM. The TGI [38] was 604 nM, the GI50 [39] was 1730 nM and the TGI [39] was 3280 nM. It also gave a GI50 [40] of 2860 nM, a TGI [40] of 10300 nM and a GI50 [41] of 6940 nM. It also gave a TGI [41] of 19800 nM, a GI50 [42] of 1870 nM and a TGI [42] of 3730 nM. For the same molecule, the GI50 [43] was 2100 nM, the TGI [43] was 5300 nM and the GI50 [44] was 2020 nM. The TGI [44] was 4240 nM, the GI50 [45] was 1800 nM and the TGI [45] was 3370 nM. For the same molecule, the GI50 [46] was 4640 nM, the TGI [46] was 15900 nM and the GI50 [47] was 1790 nM. It also gave a TGI [47] of 3470 nM, a GI50 [48] of 1960 nM and a TGI [48] of 3970 nM. For the same molecule, the GI50 [49] was 2630 nM, the TGI [49] was 14900 nM and the GI50 [50] was 278 nM. For the same molecule, the TGI [50] was 1180 nM, the GI50 [51] was 521 nM and the TGI [51] was 2080 nM. It also gave a GI50 [52] of 2240 nM, a TGI [52] of 6300 nM and a GI50 [53] of 2770 nM. For the same molecule, the TGI [53] was 9110 nM, the GI50 [54] was 1560 nM and the TGI [54] was 2900 nM. For the same molecule, the GI50 [55] was 2370 nM, the TGI [55] was 6660 nM and the GI50 [56] was 1920 nM. It also gave a TGI [56] of 4030 nM, a GI50 [57] of 1510 nM and a TGI [57] of 2930 nM.
